{"source": "patent US20070021412A1", "about": "“Treatment of gastrointestinal dysfunction and related stress with an enantiomerically-pure (S) 2,3-benzodiazepine” (Vela Pharmaceuticals, Inc., priority 2003, published 2007)", "key": {"[1]": {"test_system": "Colonic Propulsive Motility", "test": "Glass Bead Test (stretch-stimulated colonic propulsion)", "format": "in vivo, mouse", "conditions": "for Expulsion Time Mean ± SEM: 30 minutes before bead, cutoff 30 minutes, in min", "protocol": "In the test, usually performed in mice, a 3-mm glass bead is inserted through the anus into the distal colon (using a glass rod) to a depth of 2 cm. The time to expel the glass bead is then measured; normally, the glass bead is expelled in approximately 10 minutes. This model is especially sensitive to compounds with inhibitory effects on stretch-stimulated propulsive motor activity; as such, it is often used as an animal model for IBS. A test compound that inhibits stretch-stimulated-colonic propulsive motility may be used to treat gastrointestinal dysfunction, including IBS. Both enantiomerically-pure (R)- and (S)-tofisopam inhibited propulsive motility to a greater extent than the racemate.\nThe glass bead test is commmonly used to evaluate the ability of compounds to affect stimulated colonic propulsion. In the test, usually performed in mice, a 3-mm glass bead is inserted through the anus into the distal colon (using a glass rod) to a depth of 2 cm. The time to expel the glass bead is then measured; normally, the glass bead is expelled in approximately 10 minutes. This model is especially sensitive to compounds with inhibitory effects on stretch-stimulated propulsive motor activity; as such, it is often used as an animal model for IBS.\nIn each study, (RS)-, (R)- and (S)-tofisopam were evaluated for their ability to increase or decrease the time for expulsion of the glass bead. Test compounds were administered 30 minutes prior to insertion of the bead, and a maximum time cutoff of 30 minutes to expulsion was used."}, "[2]": {"test_system": "Gastrointestinal Propulsive Motility", "test": "Charcoal Meal Test (basal gastrointestinal propulsion)", "format": "in vivo, rat", "conditions": "for % Inhibition (gastrointestinal propulsive motility): numbers in parentheses indicate % increase", "protocol": "The charcoal meal test is a standard method for evaluating the effect of compounds on basal, nonstimulated propulsive motility of the stomach and small intestine. It is generally considered predictive of a compound's ability to inhibit or accelerate basal gastric propulsion in humans. In the test, usually performed in rats, nonactivated charcoal powder is administered by oral gavage. Sixty minutes after administration of the charcoal suspension, rats were sacrificed by CO2 inhalation, the stomach and small intestine were removed, and the distance between the pylorus and the furthest progression of the charcoal meal was measured and compared to the distance between the pylorus and the ileocecal junction. This model is especially sensitive to compounds with the ability to increase or decrease basal propulsive motor activity of the stomach and small intestine. It is therefore often used to predict the potential for compounds to exert antidiarrheal or anticonstipatory effects, as well as to predict the potential for compounds to produce diarrhea or constipation as a side-effect. Two charcoal meal test were performed in rats. In each study, (RS)-, (R)-and (S)-tofisopam were evaluated for their for their ability to increase or decrease the percent of the intestine traversed by a charcoal meal. Test compounds were administered 30 minutes prior to administration of the charcoal meal."}, "[3]": {"test_system": "visceral hypersensitivity, pain, and bloating induced by colonic distension", "test": "Visceral hypersensitivity, pain and bloating test (abdominal contractions after colonic distension and acetic acid)", "format": "in vivo, rat", "conditions": "32 mg/kg p.o.", "protocol": "In yet another gastrointestinal disorder model, the visceral pain and bloating test, the ability of (R)- and (S)-tofisopam to inhibit abdominal contractions in the rat was investigated. (R)- and (S)-tofisopam were able to inhibit abdominal contractions to a greater extent than racemic tofisopam. The effects of (R)-tofisopam, (S)-tofisopam, and (RS)-tofisopam were evaluated for alleviating visceral hypersensitivity, pain, and bloating. […] Eur. J. Pharmacol. 324: 211-217 (1997); Langlois et al. Eur. J. Pharmacol. 318: 141-144 (1996)). The acetic acid makes the colon hypersensitive, modeling the visceral hypersensitivity seen in IBS. The colonic distension models the pain and bloating seen in IBS, and causes abdominal contractions in rats. In the control group 13.8±2.0 abdominal contractions were measured over the 10-minute period of observation."}, "[4]": {"test_system": "stress-induced ulcer formation", "test": "Water immersion stress-induced ulcers test", "format": "in vivo, rat", "conditions": "for Ulceration Index: ulcer score × percentage of stomachs showing ulcers; for Score for the Presence of Ulcers Mean ± SEM: score 0-4, N = 8"}}}
{"smiles": "CC[C@@H]1C(C)=NN=C(c2ccc(OC)c(OC)c2)c2cc(OC)c(OC)cc21", "note": "[(S)-tofisopam, (S)-1-(3,4-dimethoxyphenyl)-4-methyl-5-ethyl-7,8-dimethoxy-5H-2,3-benzodiazepine]", "values": [{"measurement": "% Inhibition (colonic expulsion)", "setting": "[1]; 32 mg/kg IP", "result": 100, "unit": "%"}, {"measurement": "Expulsion Time Mean ± SEM", "setting": "[1]; 32 mg/kg IP", "result": "30.0 ± 0.0"}, {"measurement": "% Inhibition (colonic expulsion)", "setting": "[1]; 64 mg/kg IP", "result": 100, "unit": "%"}, {"measurement": "Expulsion Time Mean ± SEM", "setting": "[1]; 64 mg/kg IP", "result": "30.0 ± 0.0"}, {"measurement": "% Intestine Traversed, Mean ± SEM", "setting": "[2]; first experiment, 64 mg/kg IP", "result": "75.7 ± 3.1", "unit": "%"}, {"measurement": "% Inhibition (gastrointestinal propulsive motility)", "setting": "[2]; first experiment, 64 mg/kg IP", "result": 7.1, "unit": "%"}, {"measurement": "% Intestine Traversed, Mean ± SEM", "setting": "[2]; second experiment, 4 mg/kg IP", "result": "79.1 ± 1.3", "unit": "%"}, {"measurement": "% Intestine Traversed, Mean ± SEM", "setting": "[2]; second experiment, 8 mg/kg IP", "result": "80.9 ± 1.9", "unit": "%"}, {"measurement": "% Intestine Traversed, Mean ± SEM", "setting": "[2]; second experiment, 16 mg/kg IP", "result": "73.3 ± 1.2", "unit": "%"}, {"measurement": "% Inhibition (gastrointestinal propulsive motility)", "setting": "[2]; second experiment, 16 mg/kg IP", "result": 1.9, "unit": "%"}, {"measurement": "% Intestine Traversed, Mean ± SEM", "setting": "[2]; second experiment, 32 mg/kg IP", "result": "60.8 ± 2.8", "unit": "%"}, {"measurement": "% Inhibition (gastrointestinal propulsive motility)", "setting": "[2]; second experiment, 32 mg/kg IP", "result": 19.7, "unit": "%"}, {"measurement": "number of abdominal cramps", "setting": "[3]; vehicle control 18.8±1.8 cramps", "result": "10.4±1.3", "unit": "cramps"}, {"measurement": "decrease of abdominal cramps", "setting": "[3]; versus vehicle control", "result": 45, "unit": "%"}, {"measurement": "Ulceration Index", "setting": "[4]; 16 mg/kg IP", "result": 313}, {"measurement": "% of Stomachs Showing Ulcers", "setting": "[4]; 32 mg/kg IP", "result": 38, "unit": "%"}, {"measurement": "Score for the Presence of Ulcers Mean ± SEM", "setting": "[4]; 32 mg/kg IP", "result": "1.1 ± 0.4"}, {"measurement": "Ulceration Index", "setting": "[4]; 32 mg/kg IP", "result": 42}, {"measurement": "% of Stomachs Showing Ulcers", "setting": "[4]; 64 mg/kg IP", "result": 38, "unit": "%"}, {"measurement": "Score for the Presence of Ulcers Mean ± SEM", "setting": "[4]; 64 mg/kg IP", "result": "1.3 ± 0.3"}, {"measurement": "Ulceration Index", "setting": "[4]; 64 mg/kg IP", "result": 47}]}
